Reference: article PMC11005723, “Development of Complementary Photo‐arginine/lysine to Promote Discovery of Arg/Lys hPTMs Interactomes” (Advanced Science, 2024)
Non-standard residues stand in square brackets, D forms with d. No end group written: not given here. *: point of attachment. Biotin = O=C1N[C@H]2[C@H](CS[C@H]2CCCCC(=O)*)N1; R(dz) = photo-arginine

Tested on: HEK293T nuclear lysates
Assay: SILAC‐based pull‐down proteomics H4K5me1/H4K5 (probes 6/5)
Assay type: binding, human
Conditions: for C6 log (H4K5me/H4K5): run C6; for B6 log2 (H4K5me/H4K5): run B6

Substance: probe 6: H4K5me peptide probe with photo‐arginine R(dz) and K(biotin) (SG[R(dz)]GK(Me)GGKGLGKGGK(Biotin))
- C6 log (H4K5me/H4K5) (protein P46109 CRKL): 0.1336
- B6 log2 (H4K5me/H4K5) (protein P49959 MRE11A): 0.207
- C6 log (H4K5me/H4K5) (protein P49959 MRE11A): 0.09642
- B6 log2 (H4K5me/H4K5) (protein P54886 ALDH18A1): 0.2574
- C6 log (H4K5me/H4K5) (protein P54886 ALDH18A1): 0.1226
- B6 log2 (H4K5me/H4K5) (protein P60842 EIF4A1): 0.1721
- C6 log (H4K5me/H4K5) (protein P60842 EIF4A1): 0.03464
- B6 log2 (H4K5me/H4K5) (protein P62140 PPP1CB): 0.1941
- C6 log (H4K5me/H4K5) (protein P62140 PPP1CB): 0.1375
- B6 log2 (H4K5me/H4K5) (protein P78527 PRKDC): 0.1659
- C6 log (H4K5me/H4K5) (protein P78527 PRKDC): 0.03578
- B6 log2 (H4K5me/H4K5) (protein P82979 SARNP): 0.2593
- C6 log (H4K5me/H4K5) (protein P82979 SARNP): 0.2358
- B6 log2 (H4K5me/H4K5) (protein P83916 CBX1): 1.115
- C6 log (H4K5me/H4K5) (protein P83916 CBX1): 1.115
- B6 log2 (H4K5me/H4K5) (protein Q5JRI1 FUSIP1): 0.2091
- C6 log (H4K5me/H4K5) (protein Q5JRI1 FUSIP1): 0.05687
- B6 log2 (H4K5me/H4K5) (protein Q5QPR4 CDC2L2): 0.1546
- C6 log (H4K5me/H4K5) (protein Q5QPR4 CDC2L2): 0.218
- B6 log2 (H4K5me/H4K5) (protein Q5SY16 NOL9): 0.2457
- C6 log (H4K5me/H4K5) (protein Q5SY16 NOL9): 0.6439
- B6 log2 (H4K5me/H4K5) (protein Q5T760 SFRS11): 0.2194
- C6 log (H4K5me/H4K5) (protein Q5T760 SFRS11): 0.159
- B6 log2 (H4K5me/H4K5) (protein Q5UIP0 RIF1): 0.2471
- C6 log (H4K5me/H4K5) (protein Q5UIP0 RIF1): 0.213
- B6 log2 (H4K5me/H4K5) (protein Q6PD62 CTR9): 0.2151
- C6 log (H4K5me/H4K5) (protein Q6PD62 CTR9): 0.2109
- B6 log2 (H4K5me/H4K5) (protein Q6PJT7 ZC3H14): 0.2381
- C6 log (H4K5me/H4K5) (protein Q6PJT7 ZC3H14): 0.2485
- B6 log2 (H4K5me/H4K5) (protein Q7Z6E9 RBBP6): 0.1468
- C6 log (H4K5me/H4K5) (protein Q7Z6E9 RBBP6): 0.358
- B6 log2 (H4K5me/H4K5) (protein Q8IX15 HOMEZ): 0.2323
- C6 log (H4K5me/H4K5) (protein Q8IX15 HOMEZ): 0.1198
- B6 log2 (H4K5me/H4K5) (protein Q8N3X1 FNBP4): 0.1827
- C6 log (H4K5me/H4K5) (protein Q8N3X1 FNBP4): 0.2005
- B6 log2 (H4K5me/H4K5) (protein Q8N5C6 SRBD1): 0.1982
- C6 log (H4K5me/H4K5) (protein Q8N5C6 SRBD1): 0.09557
- B6 log2 (H4K5me/H4K5) (protein Q8N163 KIAA1967): 0.1537
- C6 log (H4K5me/H4K5) (protein Q8N163 KIAA1967): 0.2348
- B6 log2 (H4K5me/H4K5) (protein Q8TDD1 DDX54): 0.1648
- C6 log (H4K5me/H4K5) (protein Q8TDD1 DDX54): 0.2394
- B6 log2 (H4K5me/H4K5) (protein Q9BVJ6 UTP14A): 0.973
- C6 log (H4K5me/H4K5) (protein Q9BVJ6 UTP14A): 0.973
- B6 log2 (H4K5me/H4K5) (protein Q9H2P0 ADNP): 0.2412
- C6 log (H4K5me/H4K5) (protein Q9H2P0 ADNP): -0.7035
- B6 log2 (H4K5me/H4K5) (protein Q9H7L9 SUDS3): 1.175
- C6 log (H4K5me/H4K5) (protein Q9H7L9 SUDS3): 1.175
- B6 log2 (H4K5me/H4K5) (protein Q9H9A6 LRRC40): 0.1942
- C6 log (H4K5me/H4K5) (protein Q9H9A6 LRRC40): 0.05299
- B6 log2 (H4K5me/H4K5) (protein Q9UBD5 ORC3): 0.1586
- C6 log (H4K5me/H4K5) (protein Q9UBD5 ORC3): -0.1103
- B6 log2 (H4K5me/H4K5) (protein Q9UBW7 ZMYM2): 0.2577
- C6 log (H4K5me/H4K5) (protein Q9UBW7 ZMYM2): 0.2945
- B6 log2 (H4K5me/H4K5) (protein Q9UHB6 LIMA1): 0.1593
- C6 log (H4K5me/H4K5) (protein Q9UHB6 LIMA1): 0.1812
- B6 log2 (H4K5me/H4K5) (protein Q9UQ80 PA2G4): 0.1452
- C6 log (H4K5me/H4K5) (protein Q9UQ80 PA2G4): -0.04803
- B6 log2 (H4K5me/H4K5) (protein Q9UQR0 SCML2): 0.7435
- C6 log (H4K5me/H4K5) (protein Q9UQR0 SCML2): 0.7435
- B6 log2 (H4K5me/H4K5) (protein Q9Y2L1 DIS3): 0.1845
- C6 log (H4K5me/H4K5) (protein Q9Y2L1 DIS3): 0.1312
- B6 log2 (H4K5me/H4K5) (protein Q9Y6C9 MTCH2): 0.1565
- C6 log (H4K5me/H4K5) (protein Q9Y6C9 MTCH2): -0.06142
- B6 log2 (H4K5me/H4K5) (protein Q86VP6 CAND1): 0.1606
- C6 log (H4K5me/H4K5) (protein Q86VP6 CAND1): 0.2263
- B6 log2 (H4K5me/H4K5) (protein Q00839 HNRNPU): 0.2071
- C6 log (H4K5me/H4K5) (protein Q00839 HNRNPU): 0.1339
- B6 log2 (H4K5me/H4K5) (protein Q01082 SPTBN1): 0.2576
- C6 log (H4K5me/H4K5) (protein Q01082 SPTBN1): 0.166
- B6 log2 (H4K5me/H4K5) (protein Q06265 EXOSC9): 0.1802
- C6 log (H4K5me/H4K5) (protein Q06265 EXOSC9): 0.08146
- B6 log2 (H4K5me/H4K5) (protein Q06330 RBPJ): 0.1919
- C6 log (H4K5me/H4K5) (protein Q06330 RBPJ): -0.04363
- B6 log2 (H4K5me/H4K5) (protein Q09161 NCBP1): 0.2194
- C6 log (H4K5me/H4K5) (protein Q09161 NCBP1): 0.2078
- B6 log2 (H4K5me/H4K5) (protein Q12874 SF3A3): 0.1922
- C6 log (H4K5me/H4K5) (protein Q12874 SF3A3): 0.1113
- B6 log2 (H4K5me/H4K5) (protein Q12888 TP53BP1): 0.2132
- C6 log (H4K5me/H4K5) (protein Q12888 TP53BP1): 0.1756
- B6 log2 (H4K5me/H4K5) (protein Q13185 CBX3): 1.132
- C6 log (H4K5me/H4K5) (protein Q13185 CBX3): 1.132
- B6 log2 (H4K5me/H4K5) (protein Q13363 CTBP1): 0.1923
- C6 log (H4K5me/H4K5) (protein Q13363 CTBP1): -0.1428
- B6 log2 (H4K5me/H4K5) (protein Q13416 ORC2): 0.2451
- C6 log (H4K5me/H4K5) (protein Q13416 ORC2): 0.438
- B6 log2 (H4K5me/H4K5) (protein Q14137 BOP1): 0.2019
- C6 log (H4K5me/H4K5) (protein Q14137 BOP1): -0.001199
- B6 log2 (H4K5me/H4K5) (protein Q14498 RBM39): 0.2408
- C6 log (H4K5me/H4K5) (protein Q14498 RBM39): 0.2735
- B6 log2 (H4K5me/H4K5) (protein Q14683 SMC1A): 0.1556
- C6 log (H4K5me/H4K5) (protein Q14683 SMC1A): 0.1782
- B6 log2 (H4K5me/H4K5) (protein Q15459 SF3A1): 0.2515
- C6 log (H4K5me/H4K5) (protein Q15459 SF3A1): 0.3427
- B6 log2 (H4K5me/H4K5) (protein Q16555 DPYSL2): 0.7641
- C6 log (H4K5me/H4K5) (protein Q16555 DPYSL2): 0.7641
- B6 log2 (H4K5me/H4K5) (protein Q16658 FSCN1): 0.2138
- C6 log (H4K5me/H4K5) (protein Q16658 FSCN1): 0.727
- B6 log2 (H4K5me/H4K5) (protein Q92688 ANP32B): 0.1648
- C6 log (H4K5me/H4K5) (protein Q92688 ANP32B): 0.135
- B6 log2 (H4K5me/H4K5) (protein Q99613 EIF3C): 0.2459
- C6 log (H4K5me/H4K5) (protein Q99613 EIF3C): 0.04711
